According to US9365574B2, “Soluble guanylate cyclase activators” (Merck Sharp & Dohme Corp., priority 2010, dated 2016):

These compounds were tested on Spontaneously hypertensive rats (SHR) (assay: Acute Efficacy in Spontaneously Hypertensive Rats (SHR), telemetry blood pressure). Conditions: dose 0.3 mpk.
Assay type: in vivo, rat
Procedure, shortened: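 Male SHR with aortic telemetry catheters, 14-day recovery, conscious and freely moving; single oral gavage in 10% transcutol/20% Cremophor/70% water. BP sampled 30 s every 10 min, hourly averages minus prior-day vehicle baseline; value is maximum peak SBP decrease at stated mg/kg PO dose.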
`Cc1nnc(C2(C)C(=O)Nc3nc(-c4nn(CCC(F)(F)C(F)(F)F)c5ncccc45)nc(N)c32)o1` (stereo not drawn) [Example 169, 4-Amino-5-Methyl-5-(5-Methyl-1,3,4-Oxadiazol-2-yl)-2-[1-(3,3,4,4,4-Pentafluorobutyl)-1H-Pyrazolo[3,4-B]Pyridin-3-yl]-5,7-Dihydro-6H-Pyrrolo[2,3-D]Pyrimidin-6-One] was tested, and the “Maximum SBP reduction” value was 52 ± 5 mmHg.

Same assay, conditions: single oral dose 0.1 mpk P.O.
With `CC1(C(=O)NC2CC2)C(=O)Nc2nc(-c3nn(CCC(F)(F)C(F)F)c4ncccc34)nc(N)c21` (stereo not drawn) [Example 237, 4-amino-N-cyclopropyl-5-methyl-6-oxo-2-[1-(3,3,4,4-tetrafluorobutyl)-1H-pyrazolo[3,4-b]pyridin-3-yl]-6,7-dihydro-5H-pyrrolo[2,3-d]pyrimidine-5-carboxamide] the “Maximum peak decrease of systolic blood pressure (SBP) in SHR, Category” value (“Maximum peak decrease” below) was “B (Category B=SBP in SHRs 25-40 mmHg)”.
In the case of `Cc1ccc2c(-c3nc(N)c4c(n3)NC(=O)C4(C)C(=O)NC3CC3)nn(CCC(F)(F)C(F)(F)F)c2n1` (stereo not drawn) [Example 179, 4-Amino-N-Cyclopropyl-5-Methyl-2-(6-Methyl-1-(3,3,4,4,4-Pentafluorobutyl)-1H-Pyrazolo[3,4-B]Pyridin-3-yl)-6-Oxo-6,7-Dihydro-5H-Pyrrolo[2,3-D]Pyrimidine-5-Carboxamide], the “Maximum peak decrease” value is reported as “B (Category B=SBP in SHRs 25-40 mmHg)”.

Same assay, conditions: single oral dose 0.3 mpk P.O.
In the case of `CC1(C(=O)NC2CC2)C(=O)Nc2nc(-c3nc(CCC(F)(F)C(F)(F)F)n4ncccc34)nc(N)c21` (stereo not drawn) [Example 251, 4-amino-H-cyclopropyl-5-methyl-6-oxo-2-[7-(3,3,4,4,4-pentafluorobutyl)imidazo[1,5-b]pyridazin-5-yl]-6,7-dihydro-5H-pyrrolo[2,3-d]pyrimidine-5-carboxamide], the “Maximum peak decrease” value is reported as “C (Category C=SBP in SHRs>40 mmHg)”.
In the case of `Cc1nnc(C2(C)C(=O)Nc3nc(-c4nn(CCC(F)(F)C(F)(F)F)c5ncccc45)nc(N)c32)o1` (stereo not drawn) [Example 169, 4-Amino-5-Methyl-5-(5-Methyl-1,3,4-Oxadiazol-2-yl)-2-[1-(3,3,4,4,4-Pentafluorobutyl)-1H-Pyrazolo[3,4-B]Pyridin-3-yl]-5,7-Dihydro-6H-Pyrrolo[2,3-D]Pyrimidin-6-One], the “Maximum peak decrease” value is reported as “C (Category C=SBP in SHRs>40 mmHg)”.
In the case of `CC1(c2ccccn2)C(=O)Nc2nc(-c3nn(CCC(F)(F)F)c4ncccc34)nc(N)c21` (stereo not drawn) [Example 232, 4-amino-5-methyl-5-pyridin-2-yl-2-[1-(3,3,3-trifluoropropyl)-1H-pyrazolo[3,4-b]pyridin-3-yl]-5,7-dihydro-6H-pyrrolo[2,3-d]pyrimidin-6-one], the “Maximum peak decrease” value is reported as “B (Category B=SBP in SHRs 25-40 mmHg)”.
In the case of `CC1(c2nnc(C3CC3)o2)C(=O)Nc2nc(-c3nc(CCC(F)(F)C(F)(F)F)n4ncccc34)nc(N)c21` (stereo not drawn) [Example 255, 4-amino-5-(5-cyclopropyl-1,3,4-oxadiazol-2-yl)-5-methyl-2-[7-(3,3,4,4,4-pentafluorobutyl)imidazo[1,5-b]pyridazin-5-yl]-5,7-dihydro-6H-pyrrolo[2,3-d]pyrimidin-6-one], the “Maximum peak decrease” value is reported as “B (Category B=SBP in SHRs 25-40 mmHg)”.
`CC1(C(=O)NC2CC2)C(=O)Nc2nc(-c3nn(CCOC(F)(F)F)c4ncccc34)nc(N)c21` (stereo not drawn) [Example 200, 4-amino-N-cyclopropyl-5-methyl-6-oxo-2-{1-[2-(trifluoromethoxy)ethyl]-1H-pyrazolo[3,4-6]pyridin-3-yl}-6,7-dihydro-5H-pyrrolo[2,3-d]pyrimidine-5-carboxamide] was tested, and the “Maximum peak decrease” value was “C (Category C=SBP in SHRs>40 mmHg)”.
`Cc1nc(C2(C)C(=O)Nc3nc(-c4nn(CCC(F)(F)C(F)(F)F)c5cc(Cl)ccc45)nc(N)c32)sc1C` (stereo not drawn) [Example 167, 4-Amino-2-[6-Chloro-1-(3,3,4,4,4-Pentafluorobutyl)-1H-Indazol-3-yl]-5-(4,5-Dimethyl-1,3-Thiazol-2-yl)-5-Methyl-5,7-Dihydro-6H-Pyrrolo[2,3-D]Pyrimidin-6-One] was tested, and the “Maximum peak decrease” value was “B (Category B=SBP in SHRs 25-40 mmHg)”.
For `CC1(NCC2CC2)C(=O)Nc2nc(-c3nn(CCC(F)(F)C(F)(F)F)c4ncccc34)nc(N)c21` (stereo not drawn) [Example 174, 4-Amino-5-[(Cyclopropylmethyl)Amino]-5-Methyl-2-[1-(3,3,4,4,4-Pentafluorobutyl)-1H-Pyrazolo[3,4-B]Pyridin-3-yl]-5,7-Dihydro-6H-Pyrrolo[2,3-D]Pyrimidin-6-One], the “Maximum peak decrease” value was “B (Category B=SBP in SHRs 25-40 mmHg)”.
In the case of `CC1(c2ccccc2)C(=O)Nc2nc(-c3nc(CCC(F)(F)C(F)(F)F)c4ncccn34)nc(N)c21` (stereo not drawn) [Example 191, 4-Amino-5-Methyl-2-[8-(3,3,4,4,4-Pentafluorobutyl)Imidazo[1,5-A]Pyrimidin-6-yl]-5-Phenyl-5,7-Dihydro-6H-Pyrrolo[2,3-D]Pyrimidin-6-One], the “Maximum peak decrease” value is reported as “B (Category B=SBP in SHRs 25-40 mmHg)”.
`CC1(C(=O)Nc2cccnc2)C(=O)Nc2nc(-c3nc(CCC(F)(F)C(F)(F)F)n4cc(F)ccc34)nc(N)c21` (stereo not drawn) [Example 253, 4-amino-2-[6-fluoro-3-(3,3,4,4,4-pentafluorobutyl)imidazo[1,5-a]pyridin-1-yl]-5-methyl-6-oxo-H-pyridin-3-yl-6,7-dihydro-5H-pyrrolo[2,3-d]pyrimidine-5-carboxamide] was tested, and the “Maximum peak decrease” value was “A (Category A=SBP in SHRs<25 mmHg)”.
`CC1(C(=O)NC2CC2)C(=O)Nc2nc(-n3nc(CCC(F)(F)C(F)(F)F)c4ncccc43)nc(N)c21` (stereo not drawn) [Example 266, 4-amino-N-cyclopropyl-5-methyl-6-oxo-2-[3-(3,3,4,4,4-pentafluorobutyl)-1H-pyrazolo[4,3-b]pyridin-1-yl]-6,7-dihydro-5H-pyrrolo[2,3-d]pyrimidine-5-carboxamide] was tested, and the “Maximum peak decrease” value was “C (Category C=SBP in SHRs>40 mmHg)”.

Same assay, conditions: single oral dose 1 mpk P.O.
For `CC1(C(=O)NC2CC2)C(=O)Nc2nc(-c3nc(CCC(F)(F)C(F)(F)F)n4cc(Cl)ccc34)nc(N)c21` (stereo not drawn) [Example 250, 4-amino-2-[6-chloro-3-(3,3,4,4,4-pentafluorobutyl)imidazo[1,5-a]pyridin-1-yl]-H-cyclopropyl-5-methyl-6-oxo-6,7-dihydro-5H-pyrrolo[2,3-d]pyrimidine-5-carboxamide], the “Maximum peak decrease” value was “C (Category C=SBP in SHRs>40 mmHg)”.
`CC1(C(N)=S)C(=O)Nc2nc(-c3nn(CCC(F)(F)C(F)(F)F)c4ncccc34)nc(N)c21` (stereo not drawn) [Example 205, 4-amino-5-methyl-6-oxo-2-[1-(3,3,4,4,4-pentafluorobutyl)-1H-pyrazolo[3,4-6]pyridin-3-yl]-6,7-dihydro-5H-pyrrolo[2,3-d]pyrimidine-5-carbothioamide] was tested, and the “Maximum peak decrease” value was “C (Category C=SBP in SHRs>40 mmHg)”.
